Among the data in US12077555B2, “STAT degraders and uses thereof” (Kymera Therapeutics, Inc., priority 2019, dated 2024) are DC50 values, retold here.

This test deals with STAT3 (Homo sapiens, UniProt P40763). As to the kind of experiment: STAT3 HiBiT degradation assay in transfected A549 cells. The format is cell-based. Also noted: expressed in transfected cells; host or cells: A549. The settings on record: A549, 24 h; read-out: STAT3 HiBiT A549 degradation 24 h: Average external-Abs DC50. As to the method: Compound preparation and Cell seeding: The transfected A549 cells were harvested from dish into cell culture medium and cell numbers counted. Cells were diluted with culture medium to the desired density and 30 μL of cell suspension (about 2000 cells/well) were added into each well of a 384-well cell culture plate as designated and transferred into 37° C. 5% CO2 incubator for 24 h. Compounds were dissolved to 10 mM stock solution and 12 μL of the stock solution was transferred to a 384 LDV-plate. 3 fold, 10-point dilution was performed by transferring 4 μL compound into 8 μL DMSO using a TECAN (EVO200) liquid handler. 30 μL of diluted compound from compound source plate was transferred into the cell plate as designated by using Echo550 and transferred into 37° C. 5% CO2 incubator for 24 h.
Chain of STAT3 (P40763 whole entry): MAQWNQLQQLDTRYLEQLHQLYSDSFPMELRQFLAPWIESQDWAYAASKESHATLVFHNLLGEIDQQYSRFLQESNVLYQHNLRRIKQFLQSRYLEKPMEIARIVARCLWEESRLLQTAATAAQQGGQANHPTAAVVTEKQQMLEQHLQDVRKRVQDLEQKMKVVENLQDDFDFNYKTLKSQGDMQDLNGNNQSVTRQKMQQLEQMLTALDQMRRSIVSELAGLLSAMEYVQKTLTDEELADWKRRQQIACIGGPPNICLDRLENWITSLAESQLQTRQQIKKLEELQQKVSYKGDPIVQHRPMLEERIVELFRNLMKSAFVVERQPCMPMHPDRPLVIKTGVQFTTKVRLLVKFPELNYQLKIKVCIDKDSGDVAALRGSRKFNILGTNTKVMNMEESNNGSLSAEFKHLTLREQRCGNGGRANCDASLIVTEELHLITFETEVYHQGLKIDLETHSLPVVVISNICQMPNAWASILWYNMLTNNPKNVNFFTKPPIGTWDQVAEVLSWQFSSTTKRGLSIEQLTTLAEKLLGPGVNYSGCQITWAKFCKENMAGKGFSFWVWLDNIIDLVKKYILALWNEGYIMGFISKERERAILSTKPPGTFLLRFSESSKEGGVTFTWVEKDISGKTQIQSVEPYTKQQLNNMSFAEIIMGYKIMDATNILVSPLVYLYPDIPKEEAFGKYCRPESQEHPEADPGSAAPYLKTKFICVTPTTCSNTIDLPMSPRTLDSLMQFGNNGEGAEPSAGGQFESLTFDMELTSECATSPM
Detection: Plates were removed from incubators and equilibrated at room temperature for 15 minutes. Nano-Glo Hibit Lytic Detection reagent (Promega Cat #N3040) was thawed and equilibrated to room temperature before the experiment. 30 μL of Nano-Glo Hibit Lytic Detection reagent was added into each well to be detected. The plates were held at room temperature for 10 min followed by reading on EnSpire.
Data analysis: The remaining activity was calculated following the formula: Remaining Activity (%)=100%×(Lumsample−LumNC)/(LumPC−LumNC). Calculate the IC50 by fitting the curve using Xlfit (v5.3.1.3), equation 201: fit=(A+((B−A)/(1+((x/C)^D)))); A: Bottom; B: Top; C: IC50; and D: Slope.
The letter codes for STAT3 DC50 include: A (<0.01 μM), B (0.01-0.1 μM), C (0.1-1.0 μM), and D (>1.0 μM).
(The HiBiT peptide binds its large partner to form an active luciferase.)

For orientation: DC50 means the midpoint of the concentration-degradation curve.

With `Cn1c(=O)n(C2CCC(=O)NC2=O)c2ccc([C@H]3CC[C@H](CCC(=O)N4CC[C@H]5CC[C@@H](C(=O)N[C@@H](CCC(N)=O)C(=O)NC(c6ccccc6)c6ccccc6)N5C(=O)[C@@H](NC(=O)c5cc6cc(C(=O)P(=O)(O)O)ccc6[nH]5)C4)CC3)cc21` (stereo partly drawn) [Compound I-278, 2-[[(5S,8S,10aR)-8-[[(1S)-3-carbamoyl-1-(diphenylmethylcarbamoyl)propyl]carbamoyl]-6-oxo-3-[3-[(1r,4r)-4-[1-(2,6-dioxopiperidin-3-yl)-3-methyl-2-oxo-1,3-benzodiazol-5-yl]cyclohexyl]propanoyl]-octahydropyrrolo[1,2-a][1,5]diazocin-5-yl]carbamoyl]-1H-indole-5-carbonylphosphonic acid], the DC50 lay within 100 to 1000 nM. Then `C[C@@H](OCc1ccccc1)[C@H](CCC(N)=O)NC(=O)[C@@H]1CC[C@@H]2CCN(C(=O)CCCCCCc3ccc4c(c3)n(C)c(=O)n4C3CCC(=O)NC3=O)C[C@H](NC(=O)c3cc4cc(C(=O)P(=O)(O)O)ccc4[nH]3)C(=O)N21` (stereo partly drawn) [Compound I-184, 2-[[(5S8S,10aR)-8-[[(3S,4R)-4-(benzyloxy)-1-carbamoylpentan-3-yl]carbamoyl]-3-[7-[1-(2,6-dioxopiperidin-3-yl)-3-methyl-2-oxo-1,3-benzodiazol-5-yl]heptanoyl]-6-oxo-octahydropyrrolo[1,2-a][1,5]diazocin-5-yl]carbamoyl]-1H-indole-5-carbonylphosphonic acid], with 100 to 1000 nM; and `Cc1ncsc1-c1ccc([C@H](C)NC(=O)[C@@H]2C[C@@H](O)CN2C(=O)[C@@H](NC(=O)CCCCCc2cc(F)cc(OC[C@H](CCC(N)=O)NC(=O)[C@@H]3Cc4cccc5c4N3C(=O)[C@@H](NC(=O)c3cc4cc(C(=O)P(=O)(O)O)ccc4[nH]3)CC5)c2)C(C)(C)C)cc1` [Compound I-216, 2-[[(2S,11S)-2-[[(2S)-4-carbamoyl-1-[3-fluoro-5-(5-[[(2S)-1-[(2S,4R)-4-hydroxy-2-[[(1S)-1-[4-(4-methyl-1,3-thiazol-5-yl)phenyl]ethyl]carbamoyl]pyrrolidin-1-yl]-3,3-dimethyl-1-oxobutan-2-yl]carbamoyl]pentyl)phenoxy]butan-2-yl]carbamoyl]-12-oxo-1-azatricyclo[6.4.1.0^[4,13]]trideca-4(13),5,7-trien-11-yl]carbamoyl]-1H-indole-5-carbonylphosphonic acid], with 10 to 100 nM; and `Cc1ncsc1-c1ccc(CNC(=O)[C@@H]2C[C@@H](O)CN2C(=O)[C@@H](NC(=O)CCC2CCN(c3ccc(CO[C@H](C)[C@H](CCC(N)=O)NC(=O)[C@@H]4Cc5cccc6c5N4C(=O)[C@@H](NC(=O)c4cc5cc(C(=O)P(=O)(O)O)ccc5[nH]4)CC6)cc3)CC2)C(C)(C)C)cc1` [Compound I-160, diammonium 2-[[(2S,11S)-2-[[(3S,4R)-1-carbamoyl-4-([4-[4-(2-[[(2S)-1-[(2S,4R)-4-hydroxy-2-([[4-(4-methyl-1,3-thiazol-5-yl)phenyl]methyl]carbamoyl)pyrrolidin-1-yl]-3,3-dimethyl-1-oxobutan-2-yl]carbamoyl]ethyl)piperidin-1-yl]phenyl]methoxy)pentan-3-yl]carbamoyl]-12-oxo-1-azatricyclo[6.4.1.0^4,13]]trideca-4(13),5,7-trien-11-yl]carbamoyl]-1H-indole-5-carbonylpho sphonate], with greater than 1000 nM. As for `CC(=O)N1CC[C@H]2CC[C@@H](C(=O)N[C@@H](CCC(=O)O)COc3cc(C)cc(CCCC(=O)N[C@H](C(=O)N4C[C@H](O)C[C@H]4C(=O)N[C@@H](C)c4ccc(-c5scnc5C)cc4)C(C)(C)C)c3F)N2C(=O)[C@@H](NC(=O)c2cc3cc(C(=O)P(=O)(O)O)ccc3[nH]2)C1` [Compound I-290], the figure is less than 10 nM.
